Experimental data taken from patent publication US7612075B2, “Substituted oxoazaheterocyclyl compounds” (Aventis Pharmaceuticals Inc., priority 1998, dated 2009).
Where a name gives a salt, the structure may show the parent alone. No end group written: not given here.

What was measured:
[1] = test system: human cultured vascular smooth muscle cells; conditions: cited from earlier work
[2] = test system: rat cultured vascular smooth muscle cells; conditions: cited from earlier work
[3] = test system: rabbit carotid artery; conditions: rabbit carotid artery air-drying injury model, after vascular injury; cited from earlier work

melting point	Molecule	further results
246 to 248 °C	Nc1n[nH]c2cc(CN3CCN(Cc4cc5ccc(Cl)cc5s4)CC3=O)ccc12 [Example 874, 1-(3-Amino-1H-indazol-6-ylmethyl)-4-(6-chloro-benzo[b]thiophen-2-ylmethyl)-piperazin-2-one]	
128 to 132 °C	Nc1ncnc2cc(CN3CCC(Cc4nc5ccc(Cl)cc5[nH]4)CC3=O)ccc12 (stereo not drawn) [Example 816, 1-(4-Amino-quinazolin-7-ylmethyl)-4-(6-chloro-1H-benzoimidazol-2-ylmethyl)-piperidin-2-one]	
274 to 276 °C	Nc1n[nH]c2cc(CN3CCN(S(=O)(=O)c4cc5ccc(Cl)cc5s4)CC3=O)ccc12 [Example 876, 1-(3-Amino-1H-indazol-6-ylmethyl)-4-(6-chloro-benzo[b]thiophene-2-sulfonyl)-piperazin-2-one]	
105 to 110 °C	N=C(N)c1ccc(CN2CCC(Cc3nc4ccc(Cl)cc4[nH]3)CC2=O)cc1 (stereo not drawn) (as salt: salt) [Example 815, 4-[4-(6-Chloro-1H-benzoimidazol-2-ylmethyl)-2-oxo-piperidin-1-ylmethyl]-benzamidine]	

Further lines, the molecule ahead of its results:

Molecule	melting point	further results
TAP: named only as TAP; cited (F Bono, et al.) where the mitogenic effect of Factor Xa is said to depend on its enzymatic activity (YNRLCIKPRDWIDECDSNEGGERAYFRNGKGGCDSFWICPEDHTGADYYSSYRDCFNACI; ends and bridges not checked; cysteine pairing not given here; UniProt P17726 1-60, looked up)		mitogenesis of human cultured vascular smooth muscle cells [1]: inhibited; mitogenesis of rat cultured vascular smooth muscle cells [2]: inhibited
C[C@H]1CN(Cc2ccc3c(N)ncnc3c2)C(=O)[C@H](C)N1C(=O)C=Cc1ccc(Cl)s1 (as salt: salt) [Example 669, (3S, 5S)-1-(4-Amino-quinazolin-7-ylmethyl)-4-[3-(5-chloro-thiophen-2-yl)-acryloyl]-3,5-dimethyl-piperazin-2-one]	116 to 120 °C	
N=C(N)c1ccc(CN2CCN(Cc3nc4ccc(Cl)cc4[nH]3)CC2=O)cc1 (as salt: salt) [Example 122, 4-[4-(6-Chloro-1H-benzoimidazol-2-ylmethyl)-2-oxo-piperazin-1-ylmethyl]-benzamidine]	91 to 95 °C	
CC(=N)N1CC[C@H](Oc2ccc([C@H](Cc3ccc4ccc(C(=N)N)cc4c3)C(=O)O)cc2)C1 [DX-9065a]		neointimal proliferation [3]: less neointimal proliferation
C[C@H]1CN(Cc2ccc3c(N)ncnc3c2)C(=O)[C@H](C)N1S(=O)(=O)C=Cc1ccc(Cl)s1 [Example 667, (3S, 5S)-1-(4-Amino-quinazolin-7-ylmethyl)-4-[2-(5-chloro-thiophen-2-yl)-ethenesulfonyl]-3,5-dimethyl-piperazin-2-one]	218 to 221 °C	
C[C@@H]1CN(Cc2ccc3c(N)ncnc3c2)C(=O)[C@H](C)N1CC=Cc1ccc(Cl)s1 (as salt: trifluoroacetic acid salt) [Example 665, (3S,5R)-1-(4-Amino-quinazolin-7-ylmethyl)-4-[3-(5-chloro-thiophen-2-yl)-allyl]-3,5-dimethyl-piperazin-2-one]	67 to 70 °C	
C[C@H]1CN(Cc2ccc3c(N)ncnc3c2)C(=O)[C@H](C)N1S(=O)(=O)c1cc2ccc(Cl)cc2s1 [Example 668, (3S, 5S)-1-(4-Amino-quinazolin-7-ylmethyl)-4-(6-chloro-benzo[b]thiophen-2-sulfonyl)-3,5-dimethyl-piperazin-2-one]	224 to 226 °C	
